Measurements: BigSolDB 2.1

COc1cc(NS(=O)(=O)c2ccc(N)cc2)ncn1
Conditions | solubility (mole fraction)
in acetone, 299.05 K | 0.00789
in acetone, 303.3 K | 0.00849
in acetone, 308.2 K | 0.00935
in acetone, 313.15 K | 0.0105
in acetone, 318.05 K | 0.0112
in acetone, 323.05 K | 0.0124
in ethanol, 297.95 K | 0.000496
in ethanol, 310.95 K | 0.000859
in ethanol, 317.65 K | 0.00109
in ethanol, 327.95 K | 0.00161
in ethanol, 337.85 K | 0.00243
in ethanol, 347.15 K | 0.00356
in ethyl acetate, 300.65 K | 0.00114
in ethyl acetate, 308.2 K | 0.00131
in ethyl acetate, 316.05 K | 0.00146
in ethyl acetate, 324 K | 0.00169
in ethyl acetate, 331.95 K | 0.00184
in ethyl acetate, 339.8 K | 0.00205
in methanol, 294.55 K | 0.000735
in methanol, 303.15 K | 0.000951
in methanol, 309.95 K | 0.00117
in methanol, 317.75 K | 0.00164
in methanol, 325.85 K | 0.00221
in methanol, 332.65 K | 0.00284
in n-butanol, 305.2 K | 0.000117
in n-butanol, 318.05 K | 0.000288
in n-butanol, 327.85 K | 0.000607
in n-butanol, 339.85 K | 0.00121
in n-butanol, 352.55 K | 0.0029
in n-butanol, 362.15 K | 0.00479
in n-propanol, 300.25 K | 0.000233
in n-propanol, 308.15 K | 0.00037
in n-propanol, 318.05 K | 0.000598
in n-propanol, 327.95 K | 0.00102
in n-propanol, 342.75 K | 0.00198
in n-propanol, 352.45 K | 0.00353
in n-propanol, 361.85 K | 0.00556
